For assay [1], the target named is T1, Prostaglandin E2 receptor EP3 subtype (Homo sapiens) (UniProt P43115).
T1 sequence (whole entry): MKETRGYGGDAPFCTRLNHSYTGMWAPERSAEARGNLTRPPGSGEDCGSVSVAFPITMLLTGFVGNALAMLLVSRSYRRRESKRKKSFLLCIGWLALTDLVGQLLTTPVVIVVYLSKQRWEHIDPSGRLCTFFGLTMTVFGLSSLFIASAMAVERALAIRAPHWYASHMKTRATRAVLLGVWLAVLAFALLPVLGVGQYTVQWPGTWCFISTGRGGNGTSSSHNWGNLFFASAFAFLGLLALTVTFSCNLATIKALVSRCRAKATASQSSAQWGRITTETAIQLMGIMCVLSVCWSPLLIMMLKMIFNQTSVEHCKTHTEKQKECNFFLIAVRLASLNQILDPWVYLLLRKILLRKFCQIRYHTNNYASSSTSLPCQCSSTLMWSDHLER
Briefly: Residual binding of radiolabeled PGE-2 on the Prostanoid EP3 receptor at a concentration of 1 uM.

Assay [2] addresses Prostaglandin E2 receptor EP2 subtype (Homo sapiens, UniProt P43116). Put plainly: Antagonistic activity at Prostanoid EP2 receptor in human was determined. Type of assay: functional.
For assay [3], the target named is T2, Thromboxane A2 receptor (Homo sapiens, UniProt P21731).
T2 sequence (P21731 whole entry): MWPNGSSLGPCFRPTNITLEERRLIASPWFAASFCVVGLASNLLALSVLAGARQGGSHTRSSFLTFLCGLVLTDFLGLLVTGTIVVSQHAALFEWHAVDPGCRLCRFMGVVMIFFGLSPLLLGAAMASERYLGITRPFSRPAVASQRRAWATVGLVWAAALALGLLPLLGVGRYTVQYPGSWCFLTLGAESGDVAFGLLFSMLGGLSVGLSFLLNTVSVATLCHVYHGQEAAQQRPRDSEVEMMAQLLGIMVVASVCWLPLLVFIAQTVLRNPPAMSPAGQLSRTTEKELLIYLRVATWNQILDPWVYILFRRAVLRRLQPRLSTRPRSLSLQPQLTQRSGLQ
Briefly: Antagonistic activity at Thromboxane A2 receptor in human was determined. The class given is functional.

Assay [4] concerns the target T3, Prostaglandin D2 receptor (Homo sapiens, UniProt Q13258).
T3 sequence (Q13258 whole entry): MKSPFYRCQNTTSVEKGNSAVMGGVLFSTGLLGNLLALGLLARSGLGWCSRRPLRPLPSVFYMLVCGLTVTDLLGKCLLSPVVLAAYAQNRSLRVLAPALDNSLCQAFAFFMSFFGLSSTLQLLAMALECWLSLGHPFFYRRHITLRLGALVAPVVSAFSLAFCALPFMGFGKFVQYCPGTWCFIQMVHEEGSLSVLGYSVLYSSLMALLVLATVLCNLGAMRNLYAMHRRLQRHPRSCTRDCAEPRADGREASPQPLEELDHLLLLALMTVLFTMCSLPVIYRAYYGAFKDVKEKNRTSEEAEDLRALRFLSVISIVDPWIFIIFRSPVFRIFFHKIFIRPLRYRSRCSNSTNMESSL
Put plainly: Antagonistic activity at Prostanoid DP receptor in human was determined. Type of assay: functional.

The target of assay [5] is T4, Prostaglandin E2 receptor EP1 subtype (Homo sapiens, UniProt P34995).
T4 sequence (P34995 whole entry): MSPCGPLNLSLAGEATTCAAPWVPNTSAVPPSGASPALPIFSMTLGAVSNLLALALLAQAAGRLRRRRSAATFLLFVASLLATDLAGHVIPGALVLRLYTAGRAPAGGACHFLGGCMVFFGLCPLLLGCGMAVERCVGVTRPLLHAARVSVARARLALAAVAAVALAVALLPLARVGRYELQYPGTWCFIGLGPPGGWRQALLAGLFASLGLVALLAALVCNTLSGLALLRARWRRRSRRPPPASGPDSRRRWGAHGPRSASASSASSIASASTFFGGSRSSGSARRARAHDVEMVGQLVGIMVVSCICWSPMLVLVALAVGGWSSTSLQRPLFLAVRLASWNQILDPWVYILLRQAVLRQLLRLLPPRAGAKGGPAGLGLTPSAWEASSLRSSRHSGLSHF
Briefly: Antagonistic activity at Prostanoid EP1 receptor in human was determined. Type of assay: functional.

Assay [6] concerns the target Prostacyclin receptor (Homo sapiens, UniProt P43119). Put plainly: Antagonistic activity at Prostanoid IP receptor in human was determined. Type of assay: functional.
Assay [7] addresses T5, Prostaglandin E2 receptor EP3 subtype (Homo sapiens, UniProt P43115).
T5 sequence (P43115 whole entry): T1 sequence (whole entry)
Briefly: Antagonistic activity at Prostanoid EP3 receptor in human was determined. The class given is functional.

Assay [8] addresses Prostaglandin F2-alpha receptor (Homo sapiens, UniProt P43088). Briefly: Antagonistic activity at Prostanoid FP receptor in human was determined. The class given is functional.
Assay [9] addresses Prostaglandin E2 receptor EP4 subtype (Homo sapiens, UniProt P35408). Briefly: Antagonistic activity at Prostanoid EP4 receptor in human was determined. Type of assay: functional.

What is called Ki is the equilibrium dissociation constant of an inhibitor or competing ligand from its target. A high value points to lower affinity.

Prostaglandin F2-alpha receptor, sequence (P43088 whole entry): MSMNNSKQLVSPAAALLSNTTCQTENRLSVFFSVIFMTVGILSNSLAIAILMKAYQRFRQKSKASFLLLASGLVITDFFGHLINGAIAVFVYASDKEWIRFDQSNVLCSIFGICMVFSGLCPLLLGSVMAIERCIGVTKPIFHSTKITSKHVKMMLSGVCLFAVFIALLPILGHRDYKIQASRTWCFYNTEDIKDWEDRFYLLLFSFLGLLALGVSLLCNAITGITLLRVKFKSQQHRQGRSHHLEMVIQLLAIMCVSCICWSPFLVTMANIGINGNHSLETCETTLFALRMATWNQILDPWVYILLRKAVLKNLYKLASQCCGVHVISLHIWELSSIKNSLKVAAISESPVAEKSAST
Prostacyclin receptor, sequence (P43119 whole entry): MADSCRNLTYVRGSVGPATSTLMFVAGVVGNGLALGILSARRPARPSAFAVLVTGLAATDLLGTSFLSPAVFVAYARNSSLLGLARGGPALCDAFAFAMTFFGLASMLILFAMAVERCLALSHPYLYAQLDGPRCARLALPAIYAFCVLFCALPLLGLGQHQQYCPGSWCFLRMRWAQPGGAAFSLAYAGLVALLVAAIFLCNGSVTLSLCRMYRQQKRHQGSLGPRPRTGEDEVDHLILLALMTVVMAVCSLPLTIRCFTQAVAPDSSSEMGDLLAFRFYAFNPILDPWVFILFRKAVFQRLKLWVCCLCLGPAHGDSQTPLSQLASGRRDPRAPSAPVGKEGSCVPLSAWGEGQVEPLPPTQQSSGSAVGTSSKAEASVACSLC
Prostaglandin E2 receptor EP4 subtype, sequence (P35408 whole entry): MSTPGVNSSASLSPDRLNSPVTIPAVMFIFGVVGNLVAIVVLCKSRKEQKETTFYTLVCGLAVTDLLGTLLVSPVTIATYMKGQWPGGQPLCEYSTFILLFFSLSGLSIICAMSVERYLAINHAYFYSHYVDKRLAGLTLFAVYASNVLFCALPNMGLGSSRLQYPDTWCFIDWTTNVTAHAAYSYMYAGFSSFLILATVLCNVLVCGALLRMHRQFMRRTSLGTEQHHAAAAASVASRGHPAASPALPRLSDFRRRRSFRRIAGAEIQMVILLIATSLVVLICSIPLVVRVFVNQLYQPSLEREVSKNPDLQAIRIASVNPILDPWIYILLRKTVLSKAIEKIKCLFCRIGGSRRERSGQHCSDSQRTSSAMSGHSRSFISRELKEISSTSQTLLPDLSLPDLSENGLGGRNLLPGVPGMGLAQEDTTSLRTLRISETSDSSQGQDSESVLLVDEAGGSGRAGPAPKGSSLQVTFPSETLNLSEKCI
Prostaglandin E2 receptor EP2 subtype, sequence (P43116 whole entry): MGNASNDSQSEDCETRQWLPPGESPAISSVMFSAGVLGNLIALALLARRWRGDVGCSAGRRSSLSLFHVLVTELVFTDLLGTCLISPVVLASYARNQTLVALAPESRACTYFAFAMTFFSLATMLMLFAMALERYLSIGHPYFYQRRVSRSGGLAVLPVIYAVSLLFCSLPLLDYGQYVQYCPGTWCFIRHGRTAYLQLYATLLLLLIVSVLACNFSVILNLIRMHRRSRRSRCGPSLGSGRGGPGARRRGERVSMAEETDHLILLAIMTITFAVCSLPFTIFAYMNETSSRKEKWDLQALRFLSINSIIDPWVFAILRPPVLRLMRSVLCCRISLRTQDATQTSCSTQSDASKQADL

`OB(O)c1ccc(Cl)cc1Cl`: the Residual binding in assay [1] is 25%.

`O=C(O)/C=C/c1ccccc1Cc1ccc2ccccc2c1`: the Ki in assay [2] is 12 µM; in assay [3], 10 µM; in assay [4] it was 0.53 µM; in assay [5], greater than 100 µM; in assay [6] it was greater than 100 µM; in assay [7], 0.02 µM. In addition, the Ki came to 69 µM in assay [8] and 3.1 µM in [9].

As to `OB(O)c1cccs1`, the Residual binding in [1] came to 74%.

`CSc1ccc(B(O)O)cc1`: in [1], the Residual binding stood at 27%.

`COc1ccc(B(O)O)cc1OC` had a Residual binding in [1] of 84%.

As to `COc1ccccc1B(O)O`, the Residual binding in assay [1] is 93%.

`OB(O)c1cccc(Cl)c1` showed a Residual binding in assay [1] of 55%.

For `OB(O)c1ccsc1`, the Residual binding in [1] is 77%.

Molecule `OB(O)c1ccccc1CSCCc1ccccc1` displayed a Residual binding in assay [1] of 68%.

On to `O=C(O)/C=C/c1ccccc1Cc1ccc(Cl)cc1Cl`, for which the inhibitory constant (Ki) in assay [2] is 4.1 µM; in assay [3], 0.52 µM; in assay [4], 2.5 µM; in assay [5], greater than 100 µM; in assay [6] it was 31 µM; in assay [7], 0.11 µM. Besides, the inhibitory constant (Ki) in assay [8] was 63 µM; in assay [9], greater than 40 µM.

`OB(O)c1cc2ccccc2o1` displayed a Residual binding in assay [1] of 61%.

Consider `OCc1cccc(B(O)O)c1`, for which the Residual binding in assay [1] turned out to be 84%.

In the case of `O=C(O)/C=C/c1ccccc1Cc1ccc(Cl)c(Cl)c1`, the Ki in assay [2] was 13 µM; in [3], 0.9 µM; in assay [4] it was 2.4 µM; in assay [5], 63 µM; in [6] it was 37 µM; in [7], 0.032 µM. For the same molecule, the values for the Ki in assay [8] and in assay [9] were 41 µM and 10 µM, respectively.

The molecule `CSc1ccccc1B(O)O` had a Residual binding in [1] of 96%.

As for `CC(C)(C)NS(=O)(=O)c1ccc(B(O)O)cc1`, in assay [1], the Residual binding turned out to be 100%.

`OB(O)c1ccc(Cl)c(Cl)c1` returned a Residual binding in [1] of 8%.

Turning to `OB(O)c1ccco1`, the Residual binding in [1] is 91%.

In assay [1], `OB(O)c1cccc(CSCCc2ccccc2)c1` registered a Residual binding of 52%.

Regarding `CSc1ccc(Cc2ccccc2/C=C/C(=O)O)cc1`, the inhibition constant (Ki) was 43 µM in assay [2]; 4.6 µM in assay [3]; 4.1 µM in assay [4]; greater than 100 µM in assay [5]; greater than 76 µM in assay [6]; 0.08 µM in [7]. Besides, the Ki was greater than 83 µM in assay [8] and greater than 50 µM in assay [9].

For `OB(O)c1cccc2ccccc12`, in [1], the Residual binding came to 48%.

For the molecule `OB(O)c1ccc2ccccc2c1`, the Residual binding in assay [1] was found to be 5%.

`OB(O)c1ccccc1C(F)(F)F` showed a Residual binding in [1] of 89%.

Regarding `OB(O)c1cccc(C(F)(F)F)c1`, the Residual binding in assay [1] came out at 54%.

Values taken from ChEMBL document CHEMBL1134750, “Structure-activity relationship on the human EP3 prostanoid receptor by use of solid-support chemistry” (Bioorg Med Chem Lett, 2001).
